# From patent US20250082611A1, “DOSING REGIMEN FOR AN NLRP3 INHIBITOR IN THE TREATMENT OF OSTEOARTHRITIS” (Novartis AG, priority 2021, published 2025)
# Like-named read-outs stand apart in the source and are kept apart here.
# How the values were obtained:
# [1] = tested on: IL-1β production in PMA-differentiated THP-1 cells; assay: IL-1β production in PMA-differentiated THP-1 cells stimulated with gramicidin (hTHP-1 assay, 2% fetal bovine serum); type: cell-based; conditions: Homo sapiens, hTHP-1 assay containing 2% fetal bovine serum
# Protocol: THP-1 cells were purchased from the American Type Culture Collection and sub-cultured according to instructions from the supplier. Cells were cultured in complete RPMI 1640 (containing 10% heat inactivated FBS, penicillin (100 units/ml) and streptomycin (100 μg/ml)), and maintained in log phase prior to experimental setup. Prior to the experiment, compounds were dissolved in dimethyl sulfoxide (DMSO) to generate a 30 mM stock. The compound stock was first pre-diluted in DMSO to 3, 0.34, 0.042 and 0.0083 mM intermediate concentrations and subsequently spotted using Echo550 liquid handler into an empty 384-well assay plate to achieve desired final concentration (e.g. 100, 33, 11, 3.7, 1.2, 0.41, 0.14, 0.046, 0.015, 0.0051, 0.0017 μM). DMSO was backfilled in the plate to achieve a final DMSO assay concentration of 0.37%. The plate was then sealed and stored at room temperature until required.
# THP-1 cells were treated with PMA (Phorbol 12-myristate 13-acetate) (20 ng/ml) for 16-18 hours. On the day of the experiment the media was removed and adherent cells were detached with trypsin for 5 minutes. Cells were then harvested, washed with complete RPMI 1640, spun down, and resuspended in RPMI 1640 (containing 2% heat inactivated FBS, penicillin (100 units/ml) and streptomycin (100 μg/ml). The cells were plated in the 384-well assay plate containing the spotted compounds at a density of 50,000 cells/well (final assay volume 50 μl). Cells were incubated with compounds for 1 hour and then stimulated with gramicidin (5 μM) (Enzo) for 2 hours. Plates were then centrifuged at 340 g for 5 min. Cell free supernatant (40 μL) was collected using a 96-channel PlateMaster (Gilson) and the production of IL-1β was evaluated by HTRF (cisbio). The plates were incubated for 18 h at 4° C. and read using the preset HTRF program (donor emission at 620 nm, acceptor emission at 668 nm) of the SpectraMax i3x spectrophotometer (Molecular Devices, software SoftMax 6). A vehicle only control and a dose titration of CRID3 (100-0.0017 μM) were run concurrently with each experiment. […]
# [2] = in vivo
# Protocol: (§1) The safety of the treatment period is supported by 13-week GLP toxicology studies in rat and cynomolgus monkey. […] Safety margins for COMPOUND IA dosed at 25 mg b.i.d. based on 13-week GLP toxicology studies: […]
# in vivo = conditions: cynomolgus monkey
# Protocol: as §1
smiles,measurement,setting,value
"CC(C)(O)c1ncc([S@](N)(=O)=NC(=O)Nc2c3c(cc4c2CCC4)CCC3)s1 [Compound IA, (R)-N′-((1,2,3,5,6,7-hexahydro-s-indacen-4-yl)carbamoyl)-2-(2-hydroxypropan-2-yl) thiazole-5-sulfonimidamide]",IC50,[1],0.008 to 0.04 µM
same,Exposure multiples RAT NOAEL based on AUC0-24 h,[2],14
same,Exposure multiples RAT NOAEL based on Cmax,[2],34
same,Exposure multiples RAT NOAEL based on AUC0-24 h,[2]; 25 mg,7
same,Exposure multiples RAT NOAEL based on Cmax,[2]; 25 mg,17
same,Exposure multiples MONKEY NOAEL based on AUC0-24 h,in vivo,49
same,Exposure multiples MONKEY NOAEL based on Cmax,in vivo,66
same,NOAEL at 13 weeks,in vivo,150 mg/kg/day
same,Exposure multiples MONKEY NOAEL based on AUC0-24 h,in vivo; 25 mg,61
same,Exposure multiples MONKEY NOAEL based on Cmax,in vivo; 25 mg,82
